Measurements as given in patent US20170210778A1, “NOVEL COMPOUNDS” (The Provost, Fellows, Foundation Scholars, and the other …, priority 2014, published 2017).

Experiments:
murine NOD1 = target: T1, murine NOD1 (Mus musculus, UniProt Q8BHB0); assay: NOD1 functional agonist assay, 293mNOD1-SEAP reporter cells; assay type: cell-based; conditions: 293mNOD1 cells, OD above 3*O.D of negative control
T1 construct: expressed in transfected cells; host or cells: HEK293
T1 sequence (Q8BHB0 1-953): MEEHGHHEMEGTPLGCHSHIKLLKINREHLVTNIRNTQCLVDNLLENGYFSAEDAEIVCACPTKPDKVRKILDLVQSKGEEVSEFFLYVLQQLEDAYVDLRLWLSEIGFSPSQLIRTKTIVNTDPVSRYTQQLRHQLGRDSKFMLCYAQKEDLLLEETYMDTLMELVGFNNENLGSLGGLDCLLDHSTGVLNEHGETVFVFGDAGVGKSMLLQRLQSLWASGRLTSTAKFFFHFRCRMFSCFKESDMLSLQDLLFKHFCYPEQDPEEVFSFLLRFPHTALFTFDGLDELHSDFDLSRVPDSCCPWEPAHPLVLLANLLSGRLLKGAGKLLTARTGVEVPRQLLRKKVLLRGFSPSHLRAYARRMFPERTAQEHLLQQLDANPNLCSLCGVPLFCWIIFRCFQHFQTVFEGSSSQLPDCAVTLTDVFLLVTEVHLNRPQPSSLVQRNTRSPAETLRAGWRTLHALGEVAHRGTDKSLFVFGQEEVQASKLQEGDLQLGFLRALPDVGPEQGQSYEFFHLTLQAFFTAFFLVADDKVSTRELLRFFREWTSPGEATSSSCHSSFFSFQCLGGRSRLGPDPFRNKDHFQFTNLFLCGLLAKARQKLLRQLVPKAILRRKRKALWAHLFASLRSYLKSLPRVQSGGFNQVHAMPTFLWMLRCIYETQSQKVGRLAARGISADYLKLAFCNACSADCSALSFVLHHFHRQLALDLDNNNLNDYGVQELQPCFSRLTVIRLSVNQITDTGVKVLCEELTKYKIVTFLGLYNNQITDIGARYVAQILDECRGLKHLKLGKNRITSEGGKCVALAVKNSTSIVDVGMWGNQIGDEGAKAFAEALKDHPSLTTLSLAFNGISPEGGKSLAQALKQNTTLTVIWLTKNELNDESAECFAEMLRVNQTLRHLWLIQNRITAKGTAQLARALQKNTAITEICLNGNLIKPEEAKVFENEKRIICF
From the text: (§1) HEK293 cells were stably transfected with plasmid for the overexpression of the NOD1 genes and a reporter plasmid expressing a secreted embryonic alkaline phosphatase (SEAP) gene under the control of a promoter inducible by the transcription factors NF-κB and AP-1. These cells are referred herein as 293hNOD1-SEAP (for cells overexpressing the human NOD1 gene) and 293mNOD1-SEAP (for cells overexpressing the murine NOD1 gene). Upon NOD1 stimulation, these cells induce the activation of NF-κB and AP-1 and subsequently the secretion of SEAP. The reporter protein is easily detectable and measurable when using QUANTI-Blue™ (InvivoGen, San Diego, Calif.), a medium that turns purple/blue in the presence of SEAP.
(§2) The biological activity of the compounds of the invention tested using 293hNOD1 and 293mNOD1 cells. SEAP expression was measured using the commercially available SEAP detection kit (HEK-Blue™ Detection, InvivoGen). The SEAP activity in cells was quantified using the microplate reader (FLUOStar OPTIMA, BMG laboratories), the absorbance values were read using filter with excitation at 620 nm and emission at 655 nm. The results provided in Table 2 were expressed as the concentration were a significant mean optical density (OD) can be observed (above 3*O.D of negative control). As a positive control, the NOD1 pathway was stimulated with commercially available iE-DAP (InvivoGen) and C12-iE-DAP (an acylated derivative of DAP; InvivoGen). As a negative control endotoxin-free water was used. Additionally, 293 cells expressing the SEAP gene but not the NOD1 gene were used as a control.

human NOD1 = target: T2, human NOD1 (Homo sapiens, UniProt Q9Y239); assay: NOD1 functional agonist assay, 293hNOD1-SEAP reporter cells; assay type: cell-based; conditions: 293hNOD1 cells, OD above 3*O.D of negative control
T2 construct: expressed in transfected cells; host or cells: HEK293
T2 sequence (Q9Y239 1-953): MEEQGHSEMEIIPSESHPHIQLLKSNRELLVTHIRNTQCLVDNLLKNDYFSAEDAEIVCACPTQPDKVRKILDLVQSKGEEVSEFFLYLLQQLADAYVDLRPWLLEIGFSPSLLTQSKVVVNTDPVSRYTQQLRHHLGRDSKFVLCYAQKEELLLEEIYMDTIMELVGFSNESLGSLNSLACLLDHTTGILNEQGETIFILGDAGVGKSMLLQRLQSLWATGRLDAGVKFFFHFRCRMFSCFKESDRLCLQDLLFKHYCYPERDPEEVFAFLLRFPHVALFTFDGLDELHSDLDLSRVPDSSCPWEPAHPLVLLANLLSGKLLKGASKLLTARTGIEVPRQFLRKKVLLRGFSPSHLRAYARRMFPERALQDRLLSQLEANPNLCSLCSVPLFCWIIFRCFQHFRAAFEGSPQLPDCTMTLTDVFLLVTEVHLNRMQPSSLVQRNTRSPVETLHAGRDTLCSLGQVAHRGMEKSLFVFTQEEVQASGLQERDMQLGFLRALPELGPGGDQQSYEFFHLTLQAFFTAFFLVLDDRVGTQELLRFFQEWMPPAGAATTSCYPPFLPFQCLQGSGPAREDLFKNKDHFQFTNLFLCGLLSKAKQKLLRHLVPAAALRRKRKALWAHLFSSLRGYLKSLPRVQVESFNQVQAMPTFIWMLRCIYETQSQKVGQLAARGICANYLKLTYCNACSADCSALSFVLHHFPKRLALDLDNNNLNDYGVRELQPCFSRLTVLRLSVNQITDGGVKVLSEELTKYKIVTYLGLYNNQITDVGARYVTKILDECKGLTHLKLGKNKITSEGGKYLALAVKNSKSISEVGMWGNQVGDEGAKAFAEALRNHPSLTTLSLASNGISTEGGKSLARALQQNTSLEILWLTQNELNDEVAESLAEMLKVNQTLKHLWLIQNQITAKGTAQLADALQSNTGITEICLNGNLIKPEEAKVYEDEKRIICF
From the text: as §1, §2

hNOD2 = target: T3, hNOD2 (Homo sapiens, UniProt Q9HC29); assay: NOD2 functional agonist assay, 293hNOD2-SEAP reporter cells; assay type: cell-based; conditions: 293hNOD2 cells, OD above 3*O.D of negative control
T3 construct: expressed in transfected cells; host or cells: HEK293
T3 sequence (Q9HC29 whole entry): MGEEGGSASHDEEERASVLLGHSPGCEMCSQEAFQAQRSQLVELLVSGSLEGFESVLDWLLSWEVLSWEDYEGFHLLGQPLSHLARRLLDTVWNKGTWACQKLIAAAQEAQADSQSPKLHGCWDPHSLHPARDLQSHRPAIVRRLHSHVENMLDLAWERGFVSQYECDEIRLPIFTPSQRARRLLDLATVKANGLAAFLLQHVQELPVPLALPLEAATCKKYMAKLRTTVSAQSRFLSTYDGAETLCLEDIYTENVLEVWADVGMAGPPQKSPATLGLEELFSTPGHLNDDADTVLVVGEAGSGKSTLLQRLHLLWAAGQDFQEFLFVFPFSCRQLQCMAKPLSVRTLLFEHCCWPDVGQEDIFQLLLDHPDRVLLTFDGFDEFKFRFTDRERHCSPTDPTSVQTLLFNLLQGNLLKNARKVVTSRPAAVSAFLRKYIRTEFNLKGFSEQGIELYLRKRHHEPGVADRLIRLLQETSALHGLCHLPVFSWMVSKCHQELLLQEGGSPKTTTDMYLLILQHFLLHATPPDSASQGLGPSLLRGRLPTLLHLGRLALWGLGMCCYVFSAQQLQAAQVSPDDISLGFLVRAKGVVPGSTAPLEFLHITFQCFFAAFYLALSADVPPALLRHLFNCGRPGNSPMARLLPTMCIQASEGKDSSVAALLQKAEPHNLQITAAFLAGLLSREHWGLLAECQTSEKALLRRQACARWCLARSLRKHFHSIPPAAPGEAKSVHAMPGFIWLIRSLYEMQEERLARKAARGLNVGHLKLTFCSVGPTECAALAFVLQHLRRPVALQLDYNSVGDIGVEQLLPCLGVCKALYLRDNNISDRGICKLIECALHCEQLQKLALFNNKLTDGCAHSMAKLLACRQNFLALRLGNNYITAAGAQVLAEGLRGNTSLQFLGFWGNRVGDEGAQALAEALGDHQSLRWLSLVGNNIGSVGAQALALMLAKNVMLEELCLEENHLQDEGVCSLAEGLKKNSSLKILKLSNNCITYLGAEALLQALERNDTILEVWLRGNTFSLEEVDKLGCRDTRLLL
From the text: as §1, with “NOD2” for “NOD1”, “293hNOD2-SEAP.” for “293hNOD1-SEAP (for cells overexpressing the human NOD1 gene) and 293mNOD1-SEAP (for cells overexpressing the murine NOD1 gene).”
The biological activity of the compounds using 293hNOD2 cells. SEAP expression was measured using the commercially available SEAP detection kit (HEK-Blue™ Detection, InvivoGen). The SEAP activity in cells was quantified using the microplate reader (FLUOStar OPTIMA, BMG laboratories), the absorbance values were read using filter with excitation at 620 nm and emission at 655 nm. The results provided in Table 3 were expressed as the concentration were a significant mean optical density (OD) can be observed (above 3*O.D of negative control) as the mean optical density. As a positive control, the NOD2 pathway was stimulated with commercially available MDP (InvivoGen) and M-triDAP (InvivoGen). As a negative control endotoxin-free water was used. Additionally, 293 cells expressing the SEAP gene but not the NOD2 gene were used as a control.

EAE in C57BL/6 mice = assay: Experimental Autoimmune Encephalomyelitis (EAE) model; assay type: in vivo
From the text: EAE is induced in C57BL/6 mice by immunization with an emulsion of MOG35-55 or MOG1-125 in complete Freund's adjuvant (CFA), followed by administration of pertussis toxin (PT) in PBS, first on the day of immunization and then again the following day.

PEC = assay: IL-10 production by PEC in vitro; assay type: cell-based; conditions: 24 h stimulation, FIG. 1A
[1] = test system: LPM in the peritoneal cavity; assay: Numbers of LPM in the peritoneal cavity after i.p. injection; assay type: in vivo; conditions: injected i.p. into mice; FIG. 1B

mNod1: concentration where a significant mean optical density (OD) can be observed (murine NOD1) [µg/mL] | hNod1: concentration where a significant mean optical density (OD) can be observed (human NOD1) [µg/mL] | Compound | hNod2: concentration where a significant mean optical density (OD) can be observed (hNOD2) [µg/mL] | also measured
1 | 1 | CC(=O)N[C@H]1[C@@H](OCc2ccccc2)O[C@H](CO)[C@@H](O)[C@@H]1O[C@H](C)C(=O)N[C@@H](C)C(=O)N[C@H](CCC(=O)N[C@H](CSC[C@H](N)C(=O)O)C(=O)O)C(=O)O [Example 31, N^2-(((R)-2-(((2S,3R,4R,5S,6R)-3-acetamido-2-(benzyloxy)-5-hydroxy-6-(hydroxymethyl)tetrahydro-2H-pyran-4-yl)oxy)propanoyl)-L-alanyl)-N^5-((S)-2-(((R)-2-amino-2-carboxyethyl)thio)-1-carboxyethyl)-D-glutamine] | 0.1 | –
0.01 | 0.01 | CCCCCCC(=O)N[C@H](CCC(=O)N[C@H](CSC[C@H](N)C(=O)O)C(=O)N[C@H](C)C(=O)O)C(=O)O [Example 15, N^5-((S)-3-(((R)-2-amino-2-carboxyethyl)thio)-1-(((R)-1-carboxyethyl)amino)-1-oxopropan-2-yl)-N^2-heptanoyl-D-glutamine] | – | EAE attenuation in WT mice (EAE in C57BL/6 mice; WT mice, FIG. 2): significantly attenuated; onset of EAE (EAE in C57BL/6 mice; treated IL-10−/− mice versus untreated WT or IL-10−/− mice, FIG. 2): slightly later onset; mice that developed EAE (EAE in C57BL/6 mice; treated IL-10−/− mice, FIG. 2): 100%; mice with any symptoms of EAE (EAE in C57BL/6 mice; treated WT mice, FIG. 2): one of 6; EAE-associated weight loss (EAE in C57BL/6 mice; treated mice, FIG. 1C): prevented associated weight loss; clinical course of EAE (EAE in C57BL/6 mice; treated mice, FIG. 1C): significantly attenuated; production of IL-10 by PEC (PEC): induced the production of significant concentrations of IL-10; numbers of LPM in the peritoneal cavity [1]: significantly increased
0.001 | 0.001 | CCCCCCCCCCCC(=O)N[C@@H](C)C(=O)N[C@H](CCC(=O)N[C@H](CSC[C@H](N)C(=O)O)C(=O)NCC(=O)O)C(=O)O [Example 28, N^5-((S)-3-(((R)-2-amino-2-carboxyethyl)thio)-1-((carboxymethyl)amino)-1-oxopropan-2-yl)-N^2-(dodecanoyl-L-alanyl)-D-glutamine] | – | –
1 | 1 | CCCCCCC(=O)N[C@@H](C)C(=O)N[C@H](CCC(=O)N[C@H](CSC[C@H](N)C(=O)O)C(=O)NCC(=O)O)C(=O)O [Example 27, N^5-((S)-3-(((R)-2-amino-2-carboxyethyl)thio)-1-((carboxymethyl)amino)-1-oxopropan-2-yl)-N^2-(heptanoyl-L-alanyl)-D-glutamine] | – | –

Compound | mNod1: concentration where a significant mean optical density (OD) can be observed (murine NOD1) [µg/mL] | hNod1: concentration where a significant mean optical density (OD) can be observed (human NOD1) [µg/mL] | hNod2: concentration where a significant mean optical density (OD) can be observed (hNOD2) [µg/mL] | also measured
CC(=O)N[C@H]1[C@@H](OCc2ccccc2)O[C@H](CO)[C@@H](O)[C@@H]1O[C@H](C)C(=O)N[C@@H](C)C(=O)N[C@H](CCC(=O)N[C@H](CSC[C@H](N)C(=O)O)C(=O)NCC(=O)O)C(=O)O [Example 32, N^2-(((R)-2-(((2S,3R,4R,5S,6R)-3-acetamido-2-(benzyloxy)-5-hydroxy-6-(hydroxymethyl)tetrahydro-2H-pyran-4-yl)oxy)propanoyl)-L-alanyl)-N^5-((S)-3-(((R)-2-amino-2-carboxyethyl)thio)-1-((carboxymethyl)amino)-1-oxopropan-2-yl)-D-glutamine] | 0.1 | 0.1 | 0.1 | –
CC(=O)N[C@H]1[C@@H](OCc2ccccc2)O[C@H](CO)[C@@H](O)[C@@H]1O[C@H](C)C(=O)N[C@@H](C)C(=O)N[C@H](CCC(=O)N[C@H](CSC[C@H](N)C(=O)O)C(=O)N[C@H](C)C(=O)O)C(=O)O [Example 33, N2-(((R)-2-(((2S,3R,4R,5S,6R)-3-acetamido-2-(benzyloxy)-5-hydroxy-6-(hydroxymethyl)tetrahydro-2H-pyran-4-yl)oxy)propanoyl)-L-alanyl)-N^5-((S)-3-(((R)-2-amino-2-carboxyethyl)thio)-1-(((R)-1-carboxyethyl)amino)-1-oxopropan-2-yl)-D-glutamine] | 1 | 1 | 1 | –
